# Assays:
# CYP-450 2E1 = CYP-450 2E1 (Homo sapiens, UniProt P05181); test: In vitro human CYP-450 study, 2E1; type: in vitro ADME; details: human enzyme
# Excerpt: (§1) On the other hand, it is an inhibitor for 2C19, 2D6, 2A6 and 2C9.
# C3A hepatocyte cells = test: ACTIVTox LDH release assay; type: cell-based
# Method: Compounds A, I, H, and F were tested by Stem Cell Innovations, Inc. (Houston, TX) in their ACTIVTox® Human Liver Cell-based assays (using C3A hepatocyte cells). Specifically, the compounds were tested in the LDH release assay, which determines the release of Lactate DeHydrogenase (an indicator of cell death) at various concentrations of test compound.
# A concentration of 100 µM of test compound is a much higher level of exposure to liver cells than would ever be expected under physiological conditions. Therefore, using 100 μM as a standard test concentration (for comparative purposes), the ratio of the absorbance (which measures the level of LDH release) resulting from the presence of the test compound versus the negative control is a value known as the “average (or mean) fold control” (Average Fold Control=Average of Absorbance/Average of Negative Control).
# CYP-450 2C9 = CYP-450 2C9 (Homo sapiens, UniProt P11712); test: In vitro human CYP-450 study, 2C9; type: in vitro ADME; details: human enzyme
# Excerpt: as §1
# rats [1] = test: Hippocampal Kindled Rats model; type: in vivo; details: Rattus norvegicus
# rats [2] = test: Sciatic nerve ligation model in rats; type: in vivo; details: 62 mg/kg, at 0.5 hours
# Method: [The response (threshold for foot withdrawal) was measured in grams.]
# rats [3] = test: Preliminary Hippocampal Kindling Screening in rats (i.p.); type: in vivo; details: at 100 mg/kg
# kainate (KA) receptors = test: Electrophysiology, kainate receptor currents; type: cell-based; details: at 100 μM, holding potential −70 mV
# Excerpt: (§2) The mechanisms of action of many currently marketed anticonvulsant drugs are not fully understood. Although numerous molecular targets exist wherein anticonvulsants may exert an effect, the final common pathway appears to be through modulation of voltage-gated and/or neurotransmitter-gated ion channels. Thus, the common link among the various proposed mechanisms involves the ability of an anticonvulsant to modulate ion channel function. Presently, a number of prototype anticonvulsants are thought to exert their action (at least in part) by reducing sustained, high-frequency repetitive firing of action potentials by modulating voltage-dependent sodium (Na+) channels. The effect of promising candidate substances on voltage-gated Na+ channels can be assessed using state-of-the-art electrophysiological techniques.
# rats [4] = test: s.c. MET test, rats p.o.; type: in vivo; details: Rattus norvegicus, p.o.
# GABA receptors = test: Electrophysiology, GABA receptor currents; type: cell-based; details: at 100 μM, holding potential −70 mV
# Excerpt: as §2
# mice [5] = test: 6 Hz (minimal clonic seizure) model, mice i.p.; type: in vivo; details: Mus musculus, ip; mice, i.p.; read-out: 6 Hz ED50
# rats [6] = test: MES test, rats p.o.; type: in vivo; details: Rattus norvegicus, po
# NMDA receptors = test: Electrophysiology, NMDA current; type: cell-based; details: at 100 μM [+glycine (1 μM)], holding potential −70 mV
# Excerpt: as §2
# rats [7] = test: Gender Neutral test (kindled rats); type: in vivo
# mice [8] = test: MPTP-induced Parkinson's disease model in mice, behavioral assays; type: in vivo, C57/B16 male mice
# Method: In FIG. 27A-27C, Data are Illustrated Showing the Effect of Oral Treatment of mice for two weeks with compound BX in an MPTP-induced Parkinson's disease model. MPTP (1-methyl-4-phenyl-1,2,3,6-tetrahydropyridine) is a neurotoxin precursor to MPP+, which causes permanent symptoms of Parkinson's disease by destroying dopaminergic neurons in the substantia nigra of the brain. It has been used to study disease models in various animal studies.
# In the study, 9 month-old C57/B16 male mice were treated for 7 days of MPTP injection at a rate of 25 mg/kg dose: once a day. Mice in the treatment group were subsequently treated with 14 days of gavage with compound BX at a rate of 50 μg/gram dose: once a day. Treatment was followed with 5 days of behavioral assays
# Mice were scored on the number of legs slips per crossing.
# Mice tend to groom more often when they are healthy and feeling content.
# [9] = test system: dopaminergic neurons of striatum and Substantia Nigra pars compacta; test: MPTP-treated mice, immunohistochemical analysis (tyrosine hydroxylase); type: in vivo; details: two weeks of oral treatment
# Method: FIGS. 28A and 28B illustrate immunohistochemical analysis of the brains of mice treated with MPTP. As mentioned above, MPTP causes Parkinson's-like symptoms by destroying dopaminergic neurons in the substantia nigra of the brain. Loss of dopaminergic neurons leads to the loss of the neurotransmitter dopamine and the onset of Parkinson's symptoms. In these tests, tyrosine hydroxylase (TH) levels were measured in the Striatum (St) (FIG. 28A) and TH+ dopaminergic neurons in the Substantia Nigra pars compacta (SNpc) were counted (FIG. 28B) to assess the recovery effect of compound BX treatment from chronic MPTP-induced damage.
# [10] = test system: mRNA levels of potential targets; test: PCR array using real-time PCR (mRNA levels); details: mRNA level
# Excerpt: Tables 11 and 12 illustrate PCR array data using real-time PCR to track mRNA levels for various potential targets of compound BX.
# rats [11] = test: Water maze, spatial memory and learning in lithium-pilocarpine treated rats; type: in vivo; details: pilocarpine-induced SE rats
# Method: To assess spatial memory and learning in lithium-pilocarpine treated animals and to identify novel compounds that might ameliorate cognitive deficits and neuronal loss, rats were tested for their ability to navigate a water maze and find a submerged escape platform based only on their ability to remember and assess only extra maze visual cues. Learning can be assessed by quantifying the time that an animal takes to find the platform (latency) over a number of independent trials. Further, this model is sensitive to the hippocampal damage associated with pilocarpine-induced status epilepticus (SE).
# Sequence of CYP-450 2C9 (P11712 whole entry): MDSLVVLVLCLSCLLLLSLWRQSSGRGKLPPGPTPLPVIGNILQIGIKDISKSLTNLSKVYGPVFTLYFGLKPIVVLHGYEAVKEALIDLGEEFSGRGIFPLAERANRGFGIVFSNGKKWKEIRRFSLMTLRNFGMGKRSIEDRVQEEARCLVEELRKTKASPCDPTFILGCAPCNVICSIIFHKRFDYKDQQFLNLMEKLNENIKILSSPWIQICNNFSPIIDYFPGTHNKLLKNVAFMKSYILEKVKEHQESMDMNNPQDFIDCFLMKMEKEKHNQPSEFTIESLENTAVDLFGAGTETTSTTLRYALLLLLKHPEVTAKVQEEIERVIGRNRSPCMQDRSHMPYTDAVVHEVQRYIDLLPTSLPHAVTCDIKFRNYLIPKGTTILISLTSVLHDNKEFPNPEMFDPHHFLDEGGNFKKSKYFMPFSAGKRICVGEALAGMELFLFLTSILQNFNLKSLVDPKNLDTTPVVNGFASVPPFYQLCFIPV
# Sequence of CYP-450 2E1 (P05181 whole entry): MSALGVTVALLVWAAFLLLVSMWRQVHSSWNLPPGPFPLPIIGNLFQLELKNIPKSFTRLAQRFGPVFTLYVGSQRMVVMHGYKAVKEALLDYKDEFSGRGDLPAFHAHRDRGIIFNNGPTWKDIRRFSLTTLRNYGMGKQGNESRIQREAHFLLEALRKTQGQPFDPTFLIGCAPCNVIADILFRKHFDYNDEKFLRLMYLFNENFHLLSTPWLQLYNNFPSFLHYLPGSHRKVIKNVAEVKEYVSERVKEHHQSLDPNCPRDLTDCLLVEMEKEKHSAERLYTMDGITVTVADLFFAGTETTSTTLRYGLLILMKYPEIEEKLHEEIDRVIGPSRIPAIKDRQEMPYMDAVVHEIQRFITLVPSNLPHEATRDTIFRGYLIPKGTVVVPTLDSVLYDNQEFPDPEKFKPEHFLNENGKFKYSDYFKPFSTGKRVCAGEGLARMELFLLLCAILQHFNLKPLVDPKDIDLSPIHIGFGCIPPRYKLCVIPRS
structure (smiles),measurement,setting,value
"CC(CC(N)=O)c1ccc(OC(F)(F)F)cc1 (racemic) [Compound H, 3-[4-(trifluoromethoxy)-phenyl]butyramide]",inhibition of CYP-450 2E1,CYP-450 2E1,either no or only a remote possibility of inhibiting
same,"LDH release, mean fold control","C3A hepatocyte cells; at 100 μM, C3A hepatocyte cells, value below 1.75 = no cyto- or hepatotoxic activity",1.32
same,"cyto- or hepatotoxicity, ACTIVTox data","C3A hepatocyte cells; at physiologically relevant concentrations (i.e., <100 µM)",not cyto- or hepatotoxic
same,inhibition of CYP-450 2C9,CYP-450 2C9,inhibitor
same,ED50,rats [1],61 mg/kg
same,allodynic threshold,rats [2],455 % of the control
same,"seizure score, Preliminary Hippocampal Kindling Screening",rats [3],zero
same,kainate (KA) receptor response,kainate (KA) receptors,99±1 % of control
same,ED50,rats [4],88.1 mg/kg
same,GABA receptor response,GABA receptors,108±3 % of control
same,ED50,mice [5],55 mg/kg
same,ED50,rats [6],56.7 mg/kg
same,NMDA current (enhancement),NMDA receptors,119±7 % of control
same,efficacy in the two genders,rats [7],equally efficacious in both genders
"C[C@H](CC(N)=O)c1ccc(OC(F)(F)F)cc1 (single isomer, unassigned) [Compound BX, R-(−)-3-(4-Trifluoromethoxy-phenyl)butyramide]","hindlimb clasping test, abnormal involuntary movement",mice [8]; gavage 50 μg/gram once a day for 14 days,reduced MPTP-induced abnormal involuntary movement
same,"coat grooming test, grooming behavior",mice [8]; oral treatment for two weeks,significantly improved the grooming behavior
same,"crossbeam test, motor coordination / leg slips",mice [8]; oral treatment for two weeks,significantly improved the motor coordination and reduced the number of leg slips
same,TH+ dopaminergic neurons in the Substantia Nigra pars compacta,[9],stimulated the regrowth of TH+ dopaminergic neurons
same,tyrosine hydroxylase (TH) levels in the Striatum,[9],induce recovery from MPTP-induced damage in striatum
same,"Fold increase, Als2 (Amyotrophic lateral sclerosis 2 homolog)",[10],109.36
same,"Fold increase, Atp2b2 (ATPase, Ca++ transporting, plasma membrane 2)",[10],−5.85
same,"Fold increase, Bdnf (Brain-derived neurotrophic factor)",[10],2.58
same,"Fold increase, Cat (Catalase)",[10],82.03
same,"Fold increase, Gclc (Glutamate-cysteine ligase, catalytic subunit)",[10],5.79
same,"Fold increase, Htr2a (5-HT (serotonin) receptor 2A)",[10],−3.11
same,"Fold increase, Ldha (Lactate dehydrogenase A)",[10],−9.66
same,"Fold increase, Ntrk2 (Neurotrophic tyrosine kinase, receptor, type 2)",[10],−2.07
same,"Fold increase, P62630 (Aldehyde oxidase 1)",[10],2.1
same,"Fold increase, Prdx2 (Peroxiredoxin 2)",[10],9.66
same,"Fold increase, Psmb5 (Proteasome subunit, beta type 5)",[10],3.02
same,"Fold increase, Slc6a3 (Solute carrier family 6 (DAT), member 3)",[10],−5.59
same,"Fold increase, Snca (Alpha-Synuclein)",[10],−2.14
same,"Fold increase, Syngr3 (Synaptogyrin 3)",[10],2.25
same,"Fold increase, Syt1 (Synaptotagmin I)",[10],2.19
same,"Fold increase, Ubb (Ubiquitin B)",[10],3.23
same,"Fold increase, Ube2k (Ubiquitin-conjugating enzyme E2K)",[10],2.98
same,spatial learning and memory in the water maze task,rats [11],preserved spatial learning and memory
same,water maze learning curve in terms of latency,rats [11],much faster learning curve

# Reference: patent publication US12486218B2, “Compounds advantageous in the treatment of central nervous system diseases and disorders” (AurimMed Pharma, Inc., priority 2008, dated 2025)
